For one assay, the target named is T1, calcitonin receptors (CTR) (Homo sapiens, UniProt P30988).
T1 construct: expressed in transfected cells; host or cells: cAMP Hunter HEK293-CT-R Gs cell line (HEK293, stably transfected)
T1 sequence (P30988 25-474): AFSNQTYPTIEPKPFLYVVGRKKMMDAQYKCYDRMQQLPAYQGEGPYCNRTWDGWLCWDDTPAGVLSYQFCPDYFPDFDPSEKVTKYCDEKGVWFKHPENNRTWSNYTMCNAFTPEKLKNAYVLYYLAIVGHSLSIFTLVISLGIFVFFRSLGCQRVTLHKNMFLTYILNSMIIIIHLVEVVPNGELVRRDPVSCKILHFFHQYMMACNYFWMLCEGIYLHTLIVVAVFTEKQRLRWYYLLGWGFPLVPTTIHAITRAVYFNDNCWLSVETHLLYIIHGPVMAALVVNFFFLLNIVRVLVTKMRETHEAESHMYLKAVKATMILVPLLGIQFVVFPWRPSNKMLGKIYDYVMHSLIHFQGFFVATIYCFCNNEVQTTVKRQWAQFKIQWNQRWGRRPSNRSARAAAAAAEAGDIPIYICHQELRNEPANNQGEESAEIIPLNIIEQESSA
Nature of the assay: cAMP determination (HTRF, cAMP Dynamic 2 Kit) in cAMP Hunter HEK293-CT-R Gs cell line. Type of assay: cell-based. As to conditions: HEK293 cell line stably expressing CT-R; intracellular cAMP, HTRF. The text has this: Upon activation by a ligand, Gas-coupled GPCRs can upregulate intracellular cAMP level, and cAMP, as a second messenger, can mediate a series of cellular responses. The cAMP Hunter HEK293-CT-R Gs cell line, which overexpresses Gas-coupled calcitonin receptors (CTR), was used. The binding of calcitonin (or an analog thereof) to the overexpressed CTR upregulates intracellular cAMP level. The amount of intracellular cAMP produced after activation by the calcitonin (or an analog thereof) was detected using a cAMP Dynamic 2 Kit to evaluate the biological activity of the calcitonin (or an analog thereof). HEK293 cell line stably expressing CT-R was used. Stably transfected cells were stimulated with various concentrations of agonists. The time-resolved fluorescence resonance energy signal from the cells after stimulation with different doses was measured using HTRF technology, from which the biological activity of the agonist was subsequently calculated.
As to `CC(C)C[C@H](NC(=O)[C@H](CCCCN)NC(=O)CNC(=O)[C@H](CC(C)C)NC(=O)[C@@H](NC(=O)[C@@H]1CSSC[C@H](N)C(=O)N[C@@H](CO)C(=O)N[C@@H](CC(N)=O)C(=O)N[C@@H](CC(C)C)C(=O)N[C@@H](CO)C(=O)N[C@@H]([C@@H](C)O)C(=O)N1)C(C)C)C(=O)N[C@@H](CO)C(=O)N[C@@H](CCC(N)=O)C(=O)N[C@@H](CCC(=O)O)C(=O)N[C@@H](CC(C)C)C(=O)N[C@@H](Cc1c[nH]cn1)C(=O)N[C@@H](CCCCNC(=O)COCCOCCNC(=O)COCCOCCNC(=O)CC[C@H](NC(=O)CCCCCCCCCCCCCCCCC(=O)O)C(=O)O)C(=O)N[C@@H](CC(C)C)C(=O)N[C@@H](CCC(N)=O)C(=O)N[C@H](C(=O)N[C@@H](Cc1ccc(O)cc1)C(=O)N1CCC[C@H]1C(=O)N[C@@H](CCCNC(=N)N)C(=O)N[C@H](C(=O)N[C@@H](CC(N)=O)C(=O)N[C@H](C(=O)NCC(=O)N[C@@H](CO)C(=O)NCC(=O)N[C@H](C(=O)N1CCC[C@H]1C(N)=O)[C@@H](C)O)[C@@H](C)O)[C@@H](C)O)[C@@H](C)O` [Compound 19, Cys-Ser-Asn-Leu-Ser-Thr-Cys-Val-Leu-Gly-Lys-Leu-Ser-Gln-Glu-Leu-His-Lys(AEEA-AEEA-γGlu-octadecanedioic acid)-Leu-Gln-Thr-Tyr-P ro-Arg-Thr-Asn-Thr-Gly-Ser-Gly-Thr-Pro-NH2], the EC50 (in general, the concentration that produces a half-maximal response) was 3.7 pM.

For `CC(C)C[C@H](NC(=O)[C@H](CCCCN)NC(=O)CNC(=O)[C@H](CC(C)C)NC(=O)[C@@H](NC(=O)[C@@H]1CSSC[C@H](N)C(=O)N[C@@H](CO)C(=O)N[C@@H](CC(N)=O)C(=O)N[C@@H](CC(C)C)C(=O)N[C@@H](CO)C(=O)N[C@@H]([C@@H](C)O)C(=O)N1)C(C)C)C(=O)N[C@@H](CO)C(=O)N[C@@H](CCC(N)=O)C(=O)N[C@@H](CCC(=O)O)C(=O)N[C@@H](CC(C)C)C(=O)N[C@@H](Cc1c[nH]cn1)C(=O)N[C@@H](CCCCNC(=O)CNC(=O)[C@H](CO)NC(=O)CNC(=O)[C@H](CO)NC(=O)CC[C@H](NC(=O)CCCCCCCCCCCCCCCCCCC(=O)O)C(=O)O)C(=O)N[C@@H](CC(C)C)C(=O)N[C@@H](CCC(N)=O)C(=O)N[C@H](C(=O)N[C@@H](Cc1ccc(O)cc1)C(=O)N1CCC[C@H]1C(=O)N[C@@H](CCCNC(=N)N)C(=O)N[C@H](C(=O)N[C@@H](CC(N)=O)C(=O)N[C@H](C(=O)NCC(=O)N[C@@H](CO)C(=O)NCC(=O)N[C@H](C(=O)N1CCC[C@H]1C(N)=O)[C@@H](C)O)[C@@H](C)O)[C@@H](C)O)[C@@H](C)O` [Compound 7], the EC50 turned out to be 4.4 pM.

Consider `CC(C)C[C@H](NC(=O)[C@H](CCCCN)NC(=O)CNC(=O)[C@H](CC(C)C)NC(=O)[C@@H](NC(=O)[C@@H]1CSSC[C@H](N)C(=O)N[C@@H](CO)C(=O)N[C@@H](CC(N)=O)C(=O)N[C@@H](CC(C)C)C(=O)N[C@@H](CO)C(=O)N[C@@H]([C@@H](C)O)C(=O)N1)C(C)C)C(=O)N[C@@H](CO)C(=O)N[C@@H](CCC(N)=O)C(=O)N[C@@H](CCC(=O)O)C(=O)N[C@@H](CC(C)C)C(=O)N[C@@H](Cc1c[nH]cn1)C(=O)N[C@@H](CCCCNC(=O)COCCOCCNC(=O)COCCOCCNC(=O)CC[C@H](NC(=O)CCCCCCCCCCCCCCCCCCCCC(=O)O)C(=O)O)C(=O)N[C@@H](CC(C)C)C(=O)N[C@@H](CCC(N)=O)C(=O)N[C@H](C(=O)N[C@@H](Cc1ccc(O)cc1)C(=O)N1CCC[C@H]1C(=O)N[C@@H](CCCNC(=N)N)C(=O)N[C@H](C(=O)N[C@@H](CC(N)=O)C(=O)N[C@H](C(=O)NCC(=O)N[C@@H](CO)C(=O)NCC(=O)N[C@H](C(=O)N1CCC[C@H]1C(N)=O)[C@@H](C)O)[C@@H](C)O)[C@@H](C)O)[C@@H](C)O` [Compound 21, Cys-Ser-Asn-Leu-Ser-Thr-Cys-Val-Leu-Gly-Lys-Leu-Ser-Gln-Glu-Leu-His-Lys(AEEA-AEEA-γGlu-docosanedioic acid)-Leu-Gln-Thr-Tyr-Pro -Arg-Thr-Asn-Thr-Gly-Ser-Gly-Thr-Pro-NH2], for which the EC50 was found to be 3.5 pM.

In the case of `CC(C)C[C@H](NC(=O)[C@H](CCCCN)NC(=O)CNC(=O)[C@H](CC(C)C)NC(=O)[C@@H](NC(=O)[C@@H]1CSSC[C@H](N)C(=O)N[C@@H](CO)C(=O)N[C@@H](CC(N)=O)C(=O)N[C@@H](CC(C)C)C(=O)N[C@@H](CO)C(=O)N[C@@H]([C@@H](C)O)C(=O)N1)C(C)C)C(=O)N[C@@H](CO)C(=O)N[C@@H](CCC(N)=O)C(=O)N[C@@H](CCC(=O)O)C(=O)N[C@@H](CC(C)C)C(=O)N[C@@H](Cc1c[nH]cn1)C(=O)N[C@@H](CCCCNC(=O)COCCOCCNC(=O)COCCOCCNC(=O)COCCOCCNC(=O)CC[C@H](NC(=O)CCCCCCCCCCCCCCCCCCC(=O)O)C(=O)O)C(=O)N[C@@H](CC(C)C)C(=O)N[C@@H](CCC(N)=O)C(=O)N[C@H](C(=O)N[C@@H](Cc1ccc(O)cc1)C(=O)N1CCC[C@H]1C(=O)N[C@@H](CCCNC(=N)N)C(=O)N[C@H](C(=O)N[C@@H](CC(N)=O)C(=O)N[C@H](C(=O)NCC(=O)N[C@@H](CO)C(=O)NCC(=O)N[C@H](C(=O)N1CCC[C@H]1C(N)=O)[C@@H](C)O)[C@@H](C)O)[C@@H](C)O)[C@@H](C)O` [Compound 17, Cys-Ser-Asn-Leu-Ser-Thr-Cys-Val-Leu-Gly-Lys-Leu-Ser-Gln-Glu-Leu-His-Lys(AEEA-AEEA-AEEA-γGlu-eicosanedioic acid)-Leu-Gln-Thr-T yr-Pro-Arg-Thr-Asn-Thr-Gly-Ser-Gly-Thr-Pro-NH2], the EC50 was determined as 3.1 pM.

Take `CC(C)C[C@H](NC(=O)[C@H](CCCCN)NC(=O)CNC(=O)[C@H](CC(C)C)NC(=O)[C@@H](NC(=O)[C@@H]1CSSC[C@H](N)C(=O)N[C@@H](CO)C(=O)N[C@@H](CC(N)=O)C(=O)N[C@@H](CC(C)C)C(=O)N[C@@H](CO)C(=O)N[C@@H]([C@@H](C)O)C(=O)N1)C(C)C)C(=O)N[C@@H](CO)C(=O)N[C@@H](CCC(N)=O)C(=O)N[C@@H](CCC(=O)O)C(=O)N[C@@H](CC(C)C)C(=O)N[C@@H](Cc1c[nH]cn1)C(=O)N[C@@H](CCCCNC(=O)CNC(=O)CC[C@H](NC(=O)CCCCCCCCCCCCCCCCCCC(=O)O)C(=O)O)C(=O)N[C@@H](CC(C)C)C(=O)N[C@@H](CCC(N)=O)C(=O)N[C@H](C(=O)N[C@@H](Cc1ccc(O)cc1)C(=O)N1CCC[C@H]1C(=O)N[C@@H](CCCNC(=N)N)C(=O)N[C@H](C(=O)N[C@@H](CC(N)=O)C(=O)N[C@H](C(=O)NCC(=O)N[C@@H](CO)C(=O)NCC(=O)N[C@H](C(=O)N1CCC[C@H]1C(N)=O)[C@@H](C)O)[C@@H](C)O)[C@@H](C)O)[C@@H](C)O` [Compound 10, Cys-Ser-Asn-Leu-Ser-Thr-Cys-Val-Leu-Gly-Lys-Leu-Ser-Gln-Glu-Leu-His-Lys(Gly-yGlu-eicosanedioic acid)-Leu-Gln-Thr-Tyr-Pro-Arg-Thr-Asn-Thr-Gly-Ser-Gly-Thr-Pro-NH2]: the EC50 came out at 4.9 pM.

With `CC(C)C[C@H](NC(=O)[C@H](CCCCN)NC(=O)CNC(=O)[C@H](CC(C)C)NC(=O)[C@@H](NC(=O)[C@@H]1CSSC[C@H](N)C(=O)N[C@@H](CO)C(=O)N[C@@H](CC(N)=O)C(=O)N[C@@H](CC(C)C)C(=O)N[C@@H](CO)C(=O)N[C@@H]([C@@H](C)O)C(=O)N1)C(C)C)C(=O)N[C@@H](CO)C(=O)N[C@@H](CCC(N)=O)C(=O)N[C@@H](CCC(=O)O)C(=O)N[C@@H](CC(C)C)C(=O)N[C@@H](Cc1c[nH]cn1)C(=O)N[C@@H](CCCCNC(=O)CNC(=O)CNC(=O)CC[C@H](NC(=O)CCCCCCCCCCCCCCCCCCC(=O)O)C(=O)O)C(=O)N[C@@H](CC(C)C)C(=O)N[C@@H](CCC(N)=O)C(=O)N[C@H](C(=O)N[C@@H](Cc1ccc(O)cc1)C(=O)N1CCC[C@H]1C(=O)N[C@@H](CCCNC(=N)N)C(=O)N[C@H](C(=O)N[C@@H](CC(N)=O)C(=O)N[C@H](C(=O)NCC(=O)N[C@@H](CO)C(=O)NCC(=O)N[C@H](C(=O)N1CCC[C@H]1C(N)=O)[C@@H](C)O)[C@@H](C)O)[C@@H](C)O)[C@@H](C)O` [Compound 11], the EC50 is 4.3 pM.

Still in this assay, the particulars now being: relative to Salmon Calcitonin = 100.0; HEK293 CT-R cAMP.
Consider `CC(C)C[C@H](NC(=O)[C@H](CCCCN)NC(=O)CNC(=O)[C@H](CC(C)C)NC(=O)[C@@H](NC(=O)[C@@H]1CSSC[C@H](N)C(=O)N[C@@H](CO)C(=O)N[C@@H](CC(N)=O)C(=O)N[C@@H](CC(C)C)C(=O)N[C@@H](CO)C(=O)N[C@@H]([C@@H](C)O)C(=O)N1)C(C)C)C(=O)N[C@@H](CO)C(=O)N[C@@H](CCC(N)=O)C(=O)N[C@@H](CCC(=O)O)C(=O)N[C@@H](CC(C)C)C(=O)N[C@@H](Cc1c[nH]cn1)C(=O)N[C@@H](CCCCNC(=O)COCCOCCOCCOCCNC(=O)CC[C@H](NC(=O)CCCCCCCCCCCCCCCCCCC(=O)O)C(=O)O)C(=O)N[C@@H](CC(C)C)C(=O)N[C@@H](CCC(N)=O)C(=O)N[C@H](C(=O)N[C@@H](Cc1ccc(O)cc1)C(=O)N1CCC[C@H]1C(=O)N[C@@H](CCCNC(=N)N)C(=O)N[C@H](C(=O)N[C@@H](CC(N)=O)C(=O)N[C@H](C(=O)NCC(=O)N[C@@H](CO)C(=O)NCC(=O)N[C@H](C(=O)N1CCC[C@H]1C(N)=O)[C@@H](C)O)[C@@H](C)O)[C@@H](C)O)[C@@H](C)O` [Compound 4, Cys-Ser-Asn-Leu-Ser-Thr-Cys-Val-Leu-Gly-Lys-Leu-Ser-Gln-Glu-Leu-His-Lys(PEG4CH2CO-yGlu-eicosanedioic acid)-Leu-Gln-Thr-Tyr-Pro-Arg-Thr-Asn-Thr-Gly-Ser-Gly-Thr-Pro-NH2], for which the “Relative Activity%” value is on record as 316.7%.

The values are drawn from patent publication EP4691482A1, “LONG-ACTING CALCITONIN ANALOG” (Chengdu Aoda Biotechnology Co., Ltd., priority 2023, dated 2024).
